Measurements from article PMC6826616, “Topical 2′-Hydroxyflavanone for Cutaneous Melanoma” (Cancers, 2019).

Tested on: B16-F0 cells
Assay: EGF-pHrodo endocytosis, B16-F0 (microscopy and flow cytometry)
Format: cell-based, mouse
Settings: Rlip-antisense, Rlip-shRNA, or 10 µM 2HF for 24 h
Protocol: Figure 3 Effects of Rlip depletion on epidermal growth factor (EGF) endocytosis of mouse melanoma cells. Representative photomicrographs of Rlip-depleted B16-F0 and B16-F10 cells showing the inhibition of EGF-pHrodo endocytosis. […] Rlip was depleted by treating cells with Rlip-antisense, Rlip-shRNA, or 10 µM 2HF for 24 h as described in Materials and Methods section 4.8. Photographs were taken at identical exposures using 200× magnification.
Figure 4 Flow cytometry analysis of EGF-pHrodo endocytosis in control or Rlip depleted B16-F0 cells. Flow cytometry analysis of B16-F0 cells was performed 24 h after Rlip depletion by shRNA, RLIP76-antisense, or treatment with […] 2HF. Cells were stained with EGF-pHrodo. EGF-pHrodo-positive cells as shown on scatter plots were identified and gated based on forward and side scatter properties. The PE channel was used for red fluorescence to measure EGF-pHrodo positivity. […] Each flow cytometry analysis plot is a representative example of three independent experiments. […]
The effect of Rlip knockdown/depletion by shRNA, RLIP76-antisense (R508), or 2HF on endocytosis was studied in B16 melanoma cell lines. […] Slides were analyzed using a fluorescence microscope (Olympus America, Melville, NY, USA). […]
The effect of Rlip knockdown on endocytosis was further checked by flow cytometry. […] After 24 h, cells were trypsinized, washed with cold PBS, and counted. […]

O=C1CC(c2ccccc2O)Oc2ccccc21 (stereo not shown) [2HF, 2′-hydroxyflavanone]
EGF-pHrodo endocytosis (fluorescence microscopy): completely blocked
